Assay results published in patent US8629148B2, “Substituted oxindole-derivatives and the use thereof for the treatment of vasopressin-dependent illnesses” (AbbVie Deutschland GmbH & Co. KG, priority 2007, dated 2014).

Assays:
[1] = target: T1, human vasopressin V1b receptor (Homo sapiens, UniProt P47901); assay: Vasopressin V1b receptor binding assay (3H-AVP displacement, CHO-K1 membranes)
T1 construct: expressed in transfected cells; host or cells: CHO-K1 (cell line hV1b_3H2_CHO), membranes
T1 sequence (P47901 1-424): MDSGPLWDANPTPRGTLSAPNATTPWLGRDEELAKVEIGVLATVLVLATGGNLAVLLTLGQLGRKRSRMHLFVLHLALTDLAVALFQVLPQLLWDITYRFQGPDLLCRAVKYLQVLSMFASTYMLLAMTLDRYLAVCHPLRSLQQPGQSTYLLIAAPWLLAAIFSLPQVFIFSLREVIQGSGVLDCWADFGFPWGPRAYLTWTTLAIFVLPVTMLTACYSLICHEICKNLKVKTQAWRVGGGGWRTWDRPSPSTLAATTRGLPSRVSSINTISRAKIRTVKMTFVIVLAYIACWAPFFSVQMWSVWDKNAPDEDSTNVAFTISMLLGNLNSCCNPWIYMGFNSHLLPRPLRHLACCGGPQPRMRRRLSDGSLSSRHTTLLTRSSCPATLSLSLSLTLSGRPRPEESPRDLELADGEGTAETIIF
Method: 1. Vasopressin V1b Receptor Binding Assay:
The substance concentration was further diluted 1:5 in the assay mixture (2% DMSO in the mixture).
All determinations were carried out as triplicate determinations.

[2] = target: T2, recombinant human oxytocin receptors (Homo sapiens, UniProt P30559); assay: Oxytocin receptor binding assay (3H-oxytocin, HEK-293 cells); conditions: selectivity quotient, human OT vs human V1b
T2 construct: expressed in transfected cells; host or cells: HEK-293, transient expression; lysed and homogenized cells
T2 sequence (P30559 1-389): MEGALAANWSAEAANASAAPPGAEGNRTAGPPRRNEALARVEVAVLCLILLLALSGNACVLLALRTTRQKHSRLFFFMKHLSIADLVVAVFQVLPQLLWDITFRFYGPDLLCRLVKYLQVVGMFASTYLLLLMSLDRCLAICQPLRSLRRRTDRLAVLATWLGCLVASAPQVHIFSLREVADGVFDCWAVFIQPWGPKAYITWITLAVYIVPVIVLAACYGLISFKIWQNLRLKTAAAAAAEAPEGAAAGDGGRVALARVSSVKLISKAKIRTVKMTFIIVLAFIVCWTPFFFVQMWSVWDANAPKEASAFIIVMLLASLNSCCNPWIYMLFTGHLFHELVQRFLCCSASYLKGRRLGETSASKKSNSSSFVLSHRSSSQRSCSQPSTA
Method: The residue was taken up in ice-cold lysis buffer (50 mM Tris-HCl, 10% glycerol, pH 7.4 and Roche complete protease inhibitor) and subjected to an osmotic shock at 4° C. for 20 minutes. The lyzed cells were then centrifuged at 750×g at 4° C. for 20 minutes, the residue was taken up in incubation buffer, and aliquots of 10^7 cells/ml were prepared. The aliquots were frozen at −80° C. until used.
On the day of the experiment, the cells were thawed, diluted with incubation buffer and homogenized using a Multipette Combitip (Eppendorf, Hamburg). […] Triplicate determinations were set up. Bound and free radioligand were separated by filtration under vacuum with Whatman GF/B glass fiber filters with the aid of a Skatron cell harvester 7000. The bound radioactivity was determined by liquid scintillation measurement in a Tricarb Beta counter, model 2000 or 2200CA (Packard).

[3] = target: human vasopressin V1a receptor (Homo sapiens, UniProt P37288); assay: Vasopressin V1a receptor binding assay (125I-AVP displacement, CHO-K1 membranes); conditions: selectivity quotient, human V1a vs human V1b
Sequence of human vasopressin V1a receptor (P37288 whole entry): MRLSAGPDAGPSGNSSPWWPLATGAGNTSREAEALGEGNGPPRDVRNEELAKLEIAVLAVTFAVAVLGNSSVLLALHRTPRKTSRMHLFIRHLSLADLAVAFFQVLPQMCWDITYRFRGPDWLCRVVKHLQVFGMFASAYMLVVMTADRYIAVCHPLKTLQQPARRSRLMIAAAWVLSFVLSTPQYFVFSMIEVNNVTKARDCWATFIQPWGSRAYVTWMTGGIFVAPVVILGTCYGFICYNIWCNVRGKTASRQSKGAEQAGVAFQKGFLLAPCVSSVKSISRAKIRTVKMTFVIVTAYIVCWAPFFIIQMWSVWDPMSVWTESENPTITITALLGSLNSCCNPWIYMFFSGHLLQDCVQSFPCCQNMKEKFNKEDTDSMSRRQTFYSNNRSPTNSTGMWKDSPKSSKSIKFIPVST

| Structure (SMILES) | Ki [1] [nM] | Ki(h-OT)/Ki(h-V1b)* [2] | Ki(h-V1a)/Ki(h-V1b)* [3] |
| --- | --- | --- | --- |
| CCOc1ncccc1C1(NCc2ccc(N3CCN(C)CC3)cc2)C(=O)N(S(=O)(=O)c2ccc(OC)cc2)c2ccc(C#N)cc21 (stereo not drawn) [Example 16, 3-(2-Ethoxypyridin-3-yl)-1-(4-methoxyphenylsulfonyl)-3-[4-(4-methylpiperazin-1-yl)-benzylamino]-2-oxo-2,3-dihydro-1H-indole-5-carbonitrile] | 1 to 10 | +++ (>75) | +++ (>75) |
| CCOc1ncccc1C1(NCc2ccc(N3CCN(C)CC3)cc2)C(=O)N(S(=O)(=O)c2ccc(OC)cc2OC)c2ccc(C#N)cc21 (stereo not drawn) [Example 17, 1-(2,4-Dimethoxyphenylsulfonyl)-3-(2-ethoxypyridin-3-yl)-3-[4-(4-methylpiperazin-1-yl)-benzylamino]-2-oxo-2,3-dihydro-1H-indole-5-carbonitrile] | 1 to 10 | + (10-<25) | + (10-<25) |
| CCOc1ncccc1C1(NCc2ccc(N3CCN(C)CC3)cc2)C(=O)N(S(=O)(=O)c2ccccc2OC)c2ccc(C#N)cc21 (stereo not drawn) [Example 24, 3-(2-Ethoxypyridin-3-yl)-1-(2-methoxyphenylsulfonyl)-3-[4-(4-methylpiperazin-1-yl)-benzylamino]-2-oxo-2,3-dihydro-1H-indole-5-carbonitrile] | 1 to 10 | + (10-<25) | +++ (>75) |
| CCOc1ncccc1C1(NCc2ccc(N3CCN(C)CC3)cc2)C(=O)N(S(=O)(=O)c2cccc(OC)c2)c2ccc(C#N)cc21 (stereo not drawn) [Example 25, 3-(2-Ethoxypyridin-3-yl)-1-(3-methoxyphenylsulfonyl)-3-[4-(4-methylpiperazin-1-yl)-benzylamino]-2-oxo-2,3-dihydro-1H-indole-5-carbonitrile] | 10 to 100 | + (10-<25) | ++ (25-75) |
| CCOc1ncccc1C1(NCc2ccc(N3CCN(C)CC3)cc2)C(=O)N(S(=O)(=O)c2ccc(Cl)cc2)c2ccc(C#N)cc21 (stereo not drawn) [Example 26, 1-(4-Chlorophenylsulfonyl)-3-(2-ethoxypyridin-3-yl)-3-[4-(4-methylpiperazin-1-yl)-benzylamino]-2-oxo-2,3-dihydro-1H-indole-5-carbonitrile] | 10 to 100 | +++ (>75) | ++ (25-75) |
| CCOc1ncccc1C1(NCc2ccc(N3CCN(C)CC3)cc2)C(=O)N(S(=O)(=O)c2ccccc2)c2ccc(C#N)cc21 (stereo not drawn) [Example 27, 1-Phenylsulfonyl-3-(2-ethoxypyridin-3-yl)-3-[4-(4-methylpiperazin-1-yl)benzylamino]-2-oxo-2,3-dihydro-1H-indole-5-carbonitrile] | 10 to 100 | +++ (>75) | + (10-<25) |
| CCOc1ncccc1C1(NCc2ccc(N3CCN(C)CC3)cc2)C(=O)N(S(=O)(=O)c2ccc(C#N)cc2)c2ccc(C#N)cc21 (stereo not drawn) [Example 28, 1-(4-Cyanophenylsulfonyl)-3-(2-ethoxypyridin-3-yl)-3-[4-(4-methylpiperazin-1-yl)-benzylamino]-2-oxo-2,3-dihydro-1H-indole-5-carbonitrile] | 10 to 100 | +++ (>75) | + (10-<25) |

Second part, the molecule after the results:

| Ki [1] [nM] | Ki(h-OT)/Ki(h-V1b)* [2] | Ki(h-V1a)/Ki(h-V1b)* [3] | Structure (SMILES) |
| --- | --- | --- | --- |
| 1 to 10 | + (10-<25) | ++ (25-75) | CCOc1ncccc1C1(NCc2ccc(N3CCNCC3)cc2)C(=O)N(S(=O)(=O)c2ccc(OC)cc2OC)c2ccc(C#N)cc21 (stereo not drawn) [Example 29, 1-(2,4-Dimethoxyphenylsulfonyl)-3-(2-ethoxypyridin-3-yl)-2-oxo-3-(4-piperazin-1-yl-benzylamino)-2,3-dihydro-1H-indole-5-carbonitrile] |
| 1 to 10 | +++ (>75) | +++ (>75) | CCOc1ncccc1C1(NCc2ccc(N3CCNCC3)cc2)C(=O)N(S(=O)(=O)c2ccc(OC)cc2)c2ccc(C#N)cc21 (stereo not drawn) [Example 30, 3-(2-Ethoxypyridin-3-yl)-1-(4-methoxyphenylsulfonyl)-2-oxo-3-(4-piperazin-1-yl-benzylamino)-2,3-dihydro-1H-indole-5-carbonitrile] |
| < 1 | +++ (>75) | +++ (>75) | CCOc1ncccc1C1(NCc2ccc(N3CCN(CC)CC3)cc2)C(=O)N(S(=O)(=O)c2ccc(OC)cc2)c2ccc(C#N)cc21 (stereo not drawn) [Example 31, 3-(2-Ethoxypyridin-3-yl)-3-[4-(4-ethylpiperazin-1-yl)benzylamino]-1-(4-methoxy-phenylsulfonyl)-2-oxo-2,3-dihydro-1H-indole-5-carbonitrile] |
| < 1 | +++ (>75) | +++ (>75) | CCOc1ncccc1C1(NCc2ccc(N3CCN(C)CC3)cc2)C(=O)N(S(=O)(=O)c2ccc(OC)cc2)c2cc(F)c(C#N)cc21 (stereo not drawn) [Example 33, 3-(2-Ethoxypyridin-3-yl)-6-fluoro-1-(4-methoxyphenylsulfonyl)-3-[4-(4-methylpiperazin-1-yl)benzylamino]-2-oxo-2,3-dihydro-1H-indole-5-carbonitrile] |
| 1 to 10 | +++ (>75) | + (10-<25) | CCOc1ncccc1C1(NCc2ccc(N3CCNCC3)cc2)C(=O)N(S(=O)(=O)c2ccc(OC)cc2)c2cc(F)c(C#N)cc21 (stereo not drawn) [Example 34, 3-(2-Ethoxypyridin-3-yl)-6-fluoro-1-(4-methoxyphenylsulfonyl)-2-oxo-3-(4-piperazin-1-yl-benzylamino)-2,3-dihydro-1H-indole-5-carbonitrile] |
| 1 to 10 | +++ (>75) | + (10-<25) | CCOc1ncccc1C1(NCc2ccc(N3CCN(CC)CC3)cc2)C(=O)N(S(=O)(=O)c2ccc(OC)cc2)c2cc(F)c(C#N)cc21 (stereo not drawn) [Example 35, 3-(2-Ethoxypyridin-3-yl)-3-[4-(4-ethylpiperazin-1-yl)benzylamino]-6-fluoro-1-(4-methoxyphenylsulfonyl)-2-oxo-2,3-dihydro-1H-indole-5-carbonitrile] |
| 1 to 10 | +++ (>75) | ++ (25-75) | CCOc1ccccc1C1(NCc2ccc(N3CCN(C)CC3)cc2)C(=O)N(S(=O)(=O)c2ccc(OC)cc2)c2ccc(C#N)cc21 (stereo not drawn) [Example 37, 3-(2-Ethoxyphenyl)-1-(4-methoxyphenylsulfonyl)-3-[4-(4-methylpiperazin-1-yl)-benzylamino]-2-oxo-2,3-dihydro-1H-indole-5-carbonitrile] |
| 1 to 10 | + (10-<25) | + (10-<25) | CCOc1ncccc1C1(NCc2cccc(N3CCN(C)CC3)c2)C(=O)N(S(=O)(=O)c2ccc(OC)cc2OC)c2ccc(I)cc21 (stereo not drawn) [Example 38, 1-(2,4-Dimethoxyphenylsulfonyl)-3-(2-ethoxypyridin-3-yl)-5-iodo-3-[3-(4-methylpiperazin-1-yl)benzylamino]-1,3-dihydroindol-2-one] |
| 1 to 10 | ++ (25-75) | ++ (25-75) | CCOc1ncccc1C1(NCc2cccc(N3CCN(C)CC3)c2)C(=O)N(S(=O)(=O)c2ccc(OC)cc2)c2ccc(I)cc21 (stereo not drawn) [Example 40, 3-(2-Ethoxypyridin-3-yl)-5-iodo-1-(4-methoxyphenylsulfonyl)-3-[3-(4-methylpiperazin-1-yl)-benzylamino]-1,3-dihydroindol-2-one] |
| 1 to 10 | ++ (25-75) | ++ (25-75) | CCOc1ncccc1C1(NCc2cccc(N3CCN(C)CC3)c2)C(=O)N(S(=O)(=O)c2ccccc2OC)c2ccc(I)cc21 (stereo not drawn) [Example 41, 3-(2-Ethoxypyridin-3-yl)-5-iodo-1-(2-methoxyphenylsulfonyl)-3-[3-(4-methylpiperazin-1-yl)-benzylamino]-1,3-dihydroindol-2-one] |
